As usually defined, the pIC50 is the negative decadic logarithm of the IC50, by convention in mol/L. The term melting point denotes the temperature, or range, at which the solid turns liquid.

pIC50: −log10 of the molar value. Like-named read-outs stand apart in the source and are kept apart here.

Results on 20 molecules are retold here after patent US20040110787A1, “Heteroaryl-ethanolamine derivatives as antiviral agents” (priority 2002, published 2004).

In data set [1] the target is T1, HCMV polymerase (Human cytomegalovirus, UniProt P08546).
T1 construct: made in house; host or cells: recombinant baculovirus-infected SF-9 cells
In words: HCMV polymerase scintillation proximity assay (SPA). The format is biochemical. How it is done:
The HCMV polymerase assay is performed using a scintillation proximity assay (SPA) as described in several references, such as N. D. Cook, et al., Pharmaceutical Manufacturing International, pages 49-53 (1992); K Takeuchi, Laboratory Practice, September issue (1992); U.S. Pat. No. 4,568,649 (1986); which are incorporated by reference herein. Reactions are performed in 96-well plates. The assay is conducted in 100 μl volume with 5.4 mM HEPES (pH 7.5), 11.7 mM KCl, 4.5 mM MgCl2, 0.36 mg/ml BSA, and 90 nM ^3H-dTTP. Assays are run with and without CHAPS, (3-[(3-Cholamidopropyl)-dimethylammonio]-1-propane-sulfonate) at a final concentration of 2 mM. HCMV polymerase is diluted in enzyme dilution buffer containing 50% glycerol, 250 mM NaCl, 10 mM HEPES (pH 7.5), 100 μg/ml BSA, and 0.01% sodium azide. The HCMV polymerase, which is expressed in, recombinant baculovirus-infected SF-9 cells and purified according to literature procedures, is added at 10% (or 10 μl) of the final reaction volume, i.e., 100 μl. Compounds are diluted in 50% DMSO and 10 μl are added to each well. Control wells contain an equivalent concentration of DMSO. Unless noted otherwise, reactions are initiated via the addition of 6 nM biotinylated poly(dA)-oligo(dT) template/primer to reaction mixtures containing the enzyme, substrate, and compounds of interest. Plates are incubated in a 25° C. or 37° C. H2O bath and terminated via the addition of 40 μl/reaction of 0.5 M EDTA (pH 8) per well. Reactions are terminated within the time-frame during which substrate incorporation is linear and varied depending upon the enzyme and conditions used, i.e., 30 min. for HCMV polymerase. Ten (10) 10 μL of streptavidin-SPA beads (20 mg/ml in PBS/10% glycerol) are added following termination of the reaction. Plates are incubated 10 min. at 37° C., then equilibrated to room temperature, and counted on a Packard Topcount. Linear regressions are performed and IC50's are calculated using computer software.
A modified version of the above HCMV polymerase assay is performed as described above, but with the following changes: Compounds are diluted in 100% DMSO until final dilution into assay buffer. In the previous assay, compounds are diluted in 50% DMSO. 4.5 mM Dithiothreitol (DTT) is added to the polymerase buffer.
All results are listed as Polymerase IC50 ([…]) values. In Table 1, the term “n.d.” refers to activity data not determined.
(In general: SPA uses beads or plates that emit light when radiolabelled molecules are held near them.)

Data set [2] addresses HSV polymerase (Human herpesvirus 1, UniProt P04293). The experiment in a line: HSV polymerase assay (Table 1). The class given is biochemical.
The target in data set [3] is VZV polymerase (Varicella-zoster virus, UniProt P09252). In words: VZV polymerase assay (Table 1). The class given is biochemical.
[4] abbreviates: HCMV polymerase, SPA, read-out: Polymerase IC50 HCMV.

Chain of HSV polymerase (P04293 whole entry): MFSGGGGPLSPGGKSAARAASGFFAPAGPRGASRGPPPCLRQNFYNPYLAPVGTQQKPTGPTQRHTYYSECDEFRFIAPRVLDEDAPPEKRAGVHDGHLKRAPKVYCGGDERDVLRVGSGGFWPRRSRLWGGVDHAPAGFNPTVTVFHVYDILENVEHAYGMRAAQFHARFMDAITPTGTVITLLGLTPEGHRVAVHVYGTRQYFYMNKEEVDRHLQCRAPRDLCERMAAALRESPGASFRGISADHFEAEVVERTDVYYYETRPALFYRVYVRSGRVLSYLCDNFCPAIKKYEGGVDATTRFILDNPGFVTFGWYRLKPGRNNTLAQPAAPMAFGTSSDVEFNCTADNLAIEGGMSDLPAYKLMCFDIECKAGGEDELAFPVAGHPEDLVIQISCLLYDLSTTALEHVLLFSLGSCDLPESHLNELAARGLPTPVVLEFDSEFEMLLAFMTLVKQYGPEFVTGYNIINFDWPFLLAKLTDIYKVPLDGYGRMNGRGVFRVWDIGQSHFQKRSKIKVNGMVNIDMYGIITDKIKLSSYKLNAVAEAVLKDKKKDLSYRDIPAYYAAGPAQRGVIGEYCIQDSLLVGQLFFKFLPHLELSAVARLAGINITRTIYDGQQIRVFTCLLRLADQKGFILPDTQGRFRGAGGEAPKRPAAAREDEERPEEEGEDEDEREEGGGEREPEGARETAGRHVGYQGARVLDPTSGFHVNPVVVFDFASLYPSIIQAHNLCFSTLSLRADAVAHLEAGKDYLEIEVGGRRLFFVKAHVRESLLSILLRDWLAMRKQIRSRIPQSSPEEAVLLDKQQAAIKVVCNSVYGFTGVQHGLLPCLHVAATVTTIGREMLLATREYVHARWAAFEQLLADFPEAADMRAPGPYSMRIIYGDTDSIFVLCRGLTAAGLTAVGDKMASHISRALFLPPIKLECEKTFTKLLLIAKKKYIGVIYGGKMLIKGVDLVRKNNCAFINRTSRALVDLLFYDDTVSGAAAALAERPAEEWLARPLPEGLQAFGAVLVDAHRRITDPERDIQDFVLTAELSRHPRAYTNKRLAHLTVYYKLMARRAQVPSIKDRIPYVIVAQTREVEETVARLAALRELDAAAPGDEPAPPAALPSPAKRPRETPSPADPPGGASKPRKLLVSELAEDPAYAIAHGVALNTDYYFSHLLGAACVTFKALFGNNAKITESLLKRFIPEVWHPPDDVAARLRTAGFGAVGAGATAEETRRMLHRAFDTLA
Chain of VZV polymerase (P09252 whole entry): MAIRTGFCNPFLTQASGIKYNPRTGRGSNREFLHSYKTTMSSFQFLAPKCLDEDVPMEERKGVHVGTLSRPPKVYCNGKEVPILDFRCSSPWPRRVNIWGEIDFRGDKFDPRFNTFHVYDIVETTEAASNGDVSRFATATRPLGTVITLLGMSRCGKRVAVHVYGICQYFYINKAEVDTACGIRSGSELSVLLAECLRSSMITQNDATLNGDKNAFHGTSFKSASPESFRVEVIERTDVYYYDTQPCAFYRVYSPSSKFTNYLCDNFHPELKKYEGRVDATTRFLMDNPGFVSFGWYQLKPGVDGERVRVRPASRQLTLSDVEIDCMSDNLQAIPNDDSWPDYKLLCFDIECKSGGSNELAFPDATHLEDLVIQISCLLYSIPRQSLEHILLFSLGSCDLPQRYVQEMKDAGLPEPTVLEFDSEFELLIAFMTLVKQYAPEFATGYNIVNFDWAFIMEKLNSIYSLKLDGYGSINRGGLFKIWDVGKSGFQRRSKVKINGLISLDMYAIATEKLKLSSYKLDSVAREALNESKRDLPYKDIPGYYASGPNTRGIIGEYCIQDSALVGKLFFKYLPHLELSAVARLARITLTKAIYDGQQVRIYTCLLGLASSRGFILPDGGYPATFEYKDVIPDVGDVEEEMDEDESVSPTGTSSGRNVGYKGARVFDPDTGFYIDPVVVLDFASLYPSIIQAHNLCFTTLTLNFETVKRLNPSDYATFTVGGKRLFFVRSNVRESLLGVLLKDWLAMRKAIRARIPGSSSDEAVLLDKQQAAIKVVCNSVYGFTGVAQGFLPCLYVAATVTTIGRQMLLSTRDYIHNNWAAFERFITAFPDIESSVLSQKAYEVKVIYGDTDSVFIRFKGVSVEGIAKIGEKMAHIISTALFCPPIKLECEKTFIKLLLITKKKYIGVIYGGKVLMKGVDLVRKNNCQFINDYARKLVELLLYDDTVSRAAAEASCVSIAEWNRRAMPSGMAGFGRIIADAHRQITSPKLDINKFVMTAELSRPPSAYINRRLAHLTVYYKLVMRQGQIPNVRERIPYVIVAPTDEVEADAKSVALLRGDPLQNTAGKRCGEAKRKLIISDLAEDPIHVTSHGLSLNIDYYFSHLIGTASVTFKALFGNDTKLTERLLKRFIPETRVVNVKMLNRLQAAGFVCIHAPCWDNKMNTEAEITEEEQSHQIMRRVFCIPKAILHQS
T1 sequence (P08546 whole entry): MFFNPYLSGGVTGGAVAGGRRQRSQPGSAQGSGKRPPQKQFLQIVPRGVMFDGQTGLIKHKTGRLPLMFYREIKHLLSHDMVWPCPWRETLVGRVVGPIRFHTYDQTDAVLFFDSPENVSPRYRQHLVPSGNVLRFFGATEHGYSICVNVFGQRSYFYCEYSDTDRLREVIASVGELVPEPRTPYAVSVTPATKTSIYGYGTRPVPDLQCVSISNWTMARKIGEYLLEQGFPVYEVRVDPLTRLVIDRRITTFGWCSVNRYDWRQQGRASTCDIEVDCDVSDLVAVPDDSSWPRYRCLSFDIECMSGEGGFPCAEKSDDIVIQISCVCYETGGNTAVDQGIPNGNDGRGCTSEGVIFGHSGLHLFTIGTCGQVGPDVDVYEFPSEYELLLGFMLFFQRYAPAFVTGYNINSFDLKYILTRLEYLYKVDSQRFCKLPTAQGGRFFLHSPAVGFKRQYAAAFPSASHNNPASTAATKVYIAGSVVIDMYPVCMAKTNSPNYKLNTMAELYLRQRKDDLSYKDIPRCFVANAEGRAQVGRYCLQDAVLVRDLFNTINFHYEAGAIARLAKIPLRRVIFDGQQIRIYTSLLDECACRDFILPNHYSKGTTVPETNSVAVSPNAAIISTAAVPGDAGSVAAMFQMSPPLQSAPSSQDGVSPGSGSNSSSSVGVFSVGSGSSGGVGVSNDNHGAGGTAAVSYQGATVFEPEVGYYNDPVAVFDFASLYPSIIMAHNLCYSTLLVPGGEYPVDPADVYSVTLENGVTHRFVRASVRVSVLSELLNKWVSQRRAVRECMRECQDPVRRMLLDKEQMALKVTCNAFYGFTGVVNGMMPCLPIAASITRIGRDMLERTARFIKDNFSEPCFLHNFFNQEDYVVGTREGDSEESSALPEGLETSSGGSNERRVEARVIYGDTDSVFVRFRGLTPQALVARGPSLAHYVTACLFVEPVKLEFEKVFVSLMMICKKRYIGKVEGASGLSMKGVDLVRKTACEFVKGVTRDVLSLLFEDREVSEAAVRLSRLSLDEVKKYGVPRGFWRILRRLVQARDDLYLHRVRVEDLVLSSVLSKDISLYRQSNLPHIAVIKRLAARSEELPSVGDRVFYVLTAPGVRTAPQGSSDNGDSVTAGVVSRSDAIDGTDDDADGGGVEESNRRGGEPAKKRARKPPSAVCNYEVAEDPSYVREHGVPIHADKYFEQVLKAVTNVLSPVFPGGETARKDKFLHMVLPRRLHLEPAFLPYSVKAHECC

As for `CN(Cc1cc2c(=O)c(C(=O)NCc3ccc(Cl)cc3)cn(C)c2s1)C[C@@H](O)c1ncccn1` [Example 9], the results for the pIC50 in data set [1] (setting [4]), in data set [2] and in data set [3] were 7.30, 6.89 and 7.52, respectively.
As for `CCn1cc(C(=O)NCc2ccc(Cl)cc2)c(=O)c2cc(CN(C)CC(O)c3cnccn3)sc21` (racemic) [Example 13, rac-N-(4-Chlorobenzyl)-7-ethyl-2-(((2-hydroxy-2-pyrazin-2-ylethyl)(methyl)amino)methyl)-4-oxo-4,7-dihydrothieno[2,3-b]pyridine-5-carboxamide], the melting point lay in the range of 130 to 133 °C. For the same molecule, in data set [1] (setting [4]), the pIC50 is 6.43. Besides, the pIC50 in data set [2] was 6.26. Moreover, the negative logarithm of the IC50 (pIC50) in data set [3] is 6.77.
As to “rac-N-(4-Chlorobenzyl)-7-ethyl-2-(((2-hydroxy-2-pyrimidin-2-ylethyl)(methylamino)methyl)-4-oxo-4,7-dihydrothieno[2,3-b]pyridine-5-carboxamide [Example 14]”, the pIC50 in data set [1] (setting [4]) is 5.92.
In turn, `CN(Cc1cc2c(=O)c(C(=O)NCc3ccc(Cl)cc3)cn(C)c2s1)CC(O)c1cccnc1` (single isomer, unassigned; (+)) [Example 2, (+)-N-(4-Chlorobenzyl)-2-(((2-hydroxy-2-pyridin-3-ylethyl)(methyl)amino)methyl)-7-methyl-4-oxo-4,7-dihydrothieno[2,3-b]pyridine-5-carboxamide] displayed a melting point of 132 to 135 °C. For the same molecule, the pIC50 in data set [1] (setting [4]) is 7.10. The molecule also had a pIC50 in data set [2] of 6.46. The pIC50 in data set [3] is 6.89.
Turning to `CN(Cc1cc2c(=O)c(C(=O)NCc3ccc(Cl)cc3)cn(C)c2s1)CC(O)c1cnccn1` (racemic) [Example 10, rac-N-(4-Chlorobenzyl)-2-(((2-hydroxy-2-pyrazin-2-ylethyl)(methyl)amino)methyl)-7-methyl-4-oxo-4,7-dihydrothieno[2,3-b]pyridine-5-carboxamide], the pIC50 is 6.96 in data set [1] (setting [4]), 7.00 in data set [2] and 7.30 in data set [3].
In turn, `CN(Cc1cc2c(=O)c(C(=O)NCc3ccc(Cl)cc3)cn(C)c2s1)C[C@@H](O)c1ccccn1` [Example 5, (+)-N-(4-Chlorobenzyl)-2-((((2R)-2-hydroxy-2-pyridin-2-ylethyl)(methyl)amino)methyl)-7-methyl-4-oxo-4,7-dihydrothieno[2,3-b]pyridine-5-carboxamide] came in with a melting point of 139 to 144 °C. For the same molecule, the pIC50 in data set [1] (setting [4]) was 7.22. The molecule further gave a pIC50 in data set [2] of 7.22. In data set [3], this molecule showed a negative logarithm of the IC50 (pIC50) of 7.70.
In the case of `CN(Cc1cc2c(=O)c(C(=O)NCc3ccc(Br)cc3)cn(C)c2s1)C[C@@H](O)c1ccccn1` [Example 25, N(4-Bromobenzyl)-2-((((2R)-2-hydroxy-2-pyridin-2-ylethyl)(methyl)amino)methyl)-7-methyl-4-oxo-4,7-dihydrothieno[2,3-b]pyridine-5-carboxamide], the melting point is 151 to 153 °C. Besides, the pIC50 in data set [1] (setting [4]) is 6.82.
Turning to `CN(Cc1cc2c(=O)c(C(=O)NCc3ccc(Cl)cc3)cn(CC(O)CO)c2s1)C[C@@H](O)c1ccccn1` (stereo partly drawn) [Example 17, N-(4-Chlorobenzyl)-7-(2,3-dihydroxypropyl)-2-((((2R)-2-hydroxy-2-pyridin-2-ylethyl)(methyl)amino)methyl)-4-oxo-4,7-dihydrothieno[2,3-b]pyridine-5-carboxamide], the pIC50 in data set [1] (setting [4]) was 5.66.
The same measure, in the same setting: the value for `CCCn1cc(C(=O)NCc2ccc(Cl)cc2)c(=O)c2cc(CN(C)CC(O)c3ccccn3)sc21` (racemic) [Example 15, rac-N-(4-Chlorobenzyl)-7-propyl-2-(((2-hydroxy-2-pyridin-2-ylethyl)(methyl)amino)methyl)-4-oxo-4,7-dihydrothieno[2,3-b]pyridine-5-carboxamide] was 5.97.
`CN(Cc1cc2c(=O)c(C(=O)NCc3ccc(Cl)cc3)cn(CCCO)c2s1)C[C@@H](O)c1ccccn1` [Example 18, N-(4-Chlorobenzyl)-7-(3-hydroxypropyl)-2-((((2R)-2-hydroxy-2-pyridin-2-ylethyl)(methyl)amino)methyl)-4-oxo-4,7-dihydrothieno[2,3-b]pyridine-5-carboxamide] had a pIC50 in data set [1] of 5.89.
Turning to `CN(Cc1cc2c(=O)c(C(=O)NCc3ccc(Cl)cc3)cn(C)c2s1)CC(O)c1cccnn1` (stereo not drawn) [Example 12], the pIC50 was 6.51 in data set [1] (setting [4]), 6.08 in data set [2] and 6.64 in data set [3].
As for `CN(Cc1cc2c(=O)c(C(=O)NCc3ccc(Cl)cc3)cn(CCOCCO)c2s1)C[C@@H](O)c1cnccn1` [Example 22], in data set [1] (setting [4]), the pIC50 was 6.24.
Consider `CN(Cc1cc2c(=O)c(C(=O)NCc3ccc(F)cc3)cn(C)c2s1)C[C@@H](O)c1ccccn1` [Example 23, N-(4-Fluorobenzyl)-2-((((2R)-2-hydroxy-2-pyridin-2-ylethyl)(methyl)amino)methyl)-7-methyl-4-oxo-4,7-dihydrothieno[2,3-b]pyridine-5-carboxamide], for which the pIC50 in data set [1] (setting [4]) was 6.55; in data set [2], 6.31; in data set [3], 6.96.
Regarding `CN(Cc1cc2c(=O)c(C(=O)NCc3ccc(Cl)cc3)cn(CCO)c2s1)C[C@@H](O)c1ccccn1` [Example 20, N-(4-Chlorobenzyl)-7-(2-hydroxyethyl)-2-((((2R)-2-hydroxy-2-pyridin-2-ylethyl)(methyl)amino)methyl)-4-oxo-4,7-dihydrothieno[2,3-b]pyridine-5-carboxamide], the pIC50 in data set [1] (setting [4]) is 5.94.
The molecule `Cc1cccc(C(O)CN(C)Cc2cc3c(=O)c(C(=O)NCc4ccc(Cl)cc4)cn(C)c3s2)n1` (racemic) [Example 6, rac-N-(4-Chlorobenzyl)-2-(((2-hydroxy-2-(6-methylpyridin-2-yl)ethyl)(methyl)amino)methyl)-7-methyl-4-oxo-4,7-dihydrothieno[2,3-b]pyridine-5-carboxamide] showed a melting point of 158 to 162 °C. The pIC50 in data set [1] (setting [4]) is 6.21.
`CN(Cc1cc2c(=O)c(C(=O)NCc3ccc(Cl)cc3)cn(CCCO)c2s1)CC(O)c1ncccn1` (racemic) [Example 19, rac-N-(4-Chlorobenzyl)-7-(3-hydroxypropyl)-2-(((2-hydroxy-2-pyrimidin-2-ylethyl)(methyl)amino)methyl)-4-oxo-4,7-dihydrothieno[2,3-b]pyridine-5-carboxamide] had a pIC50 in data set [1] of 5.95.
For `COCCn1cc(C(=O)NCc2ccc(Cl)cc2)c(=O)c2cc(CN(C)CC(O)c3cnccn3)sc21` (racemic) [Example 21, rac-N-(4-Chlorobenzyl)-2-(((2-hydroxy-2-pyrazin-2-ylethyl)(methyl)amino)methyl)-7-(2-methoxyethyl)-4-oxo-4,7-dihydrothieno[2,3-b]pyridine-5-carboxamide], the melting point lay within 122 to 123 °C. In addition, the pIC50 in data set [1] (setting [4]) is 5.99.
Take `CN(Cc1cc2c(=O)c(C(=O)NCc3ccc(C#N)cc3)cn(C)c2s1)C[C@@H](O)c1ccccn1` [Example 24, N(4-Cyanobenzyl)-2-((((2R)-2-hydroxy-2-pyridin-2-ylethyl)(methyl)amino)methyl)-7-methyl-4-oxo-4,7-dihydrothieno[2,3-b]pyridine-5-carboxamide]: the melting point lay in the range of 167 to 169 °C. In data set [1] (setting [4]), the pIC50 was 6.64.
Take `CN(Cc1cc2c(=O)c(C(=O)NCc3ccc(Cl)cc3)cn(C)c2s1)C[C@@H](O)c1cnccn1` [Example 11, N-(4-Chlorobenzyl)-2-((((2R)-2-hydroxy-2-pyrazin-2-ylethyl)(methyl)amino)methyl)-7-methyl-4-oxo-4,7-dihydrothieno[2,3-b]pyridine-5-carboxamide]: the negative logarithm of the IC50 (pIC50) in data set [1] (setting [4]) was 7.40; in data set [2] it was 7.10; in data set [3] it was 7.70.
For `CCCn1cc(C(=O)NCc2ccc(Cl)cc2)c(=O)c2cc(CN(C)CC(O)c3cnccn3)sc21` (racemic) [Example 16, rac-N-(4-Chlorobenzyl)-2-(((2-hydroxy-2-pyrazin-2-ylethyl)(methyl)amino)methyl)-4-oxo-7-propyl-4,7-dihydrothieno[2,3-b]pyridine-5-carboxamide] the same measures were 6.51, 5.96 and 6.68.
